In US4241184A, “Secondary alcohol dehydrogenase enzyme and use thereof” (priority 1979, dated 1980):

Tests used:
[1] = tested on: cell-free particulate fractions derived from the methylotrophic microorganisms; assay: Conversion of C3-C6 n-alkanes to sec. alcohols by cell-free particulate fractions: inhibitors and electron donors; type: biochemical
Excerpt: The conditions for preparing the cell suspensions or the cell-free particulate fractions from methane-grown methylotroph microorganisms is the same as described above. […] Tables XXV and XXVI show the conversion of C3 -C6 n-alkanes to the corresponding secondary alcohols using cell suspensions and cell-free particulate fractions, respectively, of methane-grown methylotroph microorganisms.

[2] = Propylene- and methane-oxidizing activities in cell fractions P(40), P(80), S(80) of methylotrophs; type: biochemical; conditions: in place of NADH
Protocol: The oxidation of methane and propylene by particulate [(P)40 and(P)80] fractions and soluble [S(80)] fraction was measured at 30° C. by estimating the production of methanol and propylene oxide, respectively.
Reaction mixtures were contained in 10 ml vials at 4° C. Vials were sealed with rubber caps. The gaseous phase in the vials was removed using vacuum and then was replaced with a gas mixture of methane or propylene and oxygen at a 1:1, v/v ratio. Oxidation of other gaseous n-alkanes and n-alkenes was examined as described above. For liquid substrates, 10 μl of substrate was used directly. Vials were then incubated at 30° C. on a rotary shaker at 200 RPM.
The column temperature was maintained isothermally at 120° C. The carrier gas flow rate was 30 ml/min. of helium.

NC(=O)C1=CN([C@@H]2O[C@H](COP(=O)(O)OP(=O)(O)OC[C@H]3O[C@@H](n4cnc5c(N)ncnc54)[C@H](OP(=O)(O)O)[C@@H]3O)[C@@H](O)[C@H]2O)C=CC1 [NADPH, reduced nicotinamide adenine dinucleotide phosphate]
electron donor in place of NADH for hydroxylation of n-alkanes [1]: could also be utilized | electron carrier for epoxidation of propylene and hydroxylation of methane [2]: could also be utilized
